Source: patent publication US6083973A, “Methods for inhibiting mucin secretion using RAR α selective antagonists” (Syntex (U.S.A.) Inc., priority 1999, dated 2000)

How the values were obtained:
[1] = test system: RXR receptors; conditions: cited from earlier work
[2] = test system: LPS-induced mucin hypersecretion in rats; assay: Mucous hypersecretion in rat model of LPS-induced lung inflammation; format: in vivo; conditions: for mucous hypersecretion in rats: 10 mg/kg daily starting 72 hours prior to LPS challenge
Protocol: (§1) All-trans retinoic acid (ATRA) was evaluated for its effects on mucous hypersecretion in the rat model of endotoxin/lipopolysacharide (LPS)-induced lung inflammation (Steiger et al. J. Am. Respir. Cell Mol. Biol., 12:307-314 (1995)). Animals were divided into treatment groups of approximately six. Lung inflammation was induced in male Long Evans rats by repeated instillation of LPS (LPS derived from Pseudomonas aeriginos; Sigma Chemical) 400 μg/Kg/dose/day for three days. ATRA was dissolved in DMSO (20 mg/ml) and stored at -20 C. Fresh working stocks were prepared fresh daily by dilution in PBS to a final concentration of 2 mg/ml. Animals treated with ATRA (2 mg/kg ip) were dosed once daily by intraperitoneal injection, starting 24 hours prior to the first LPS challenge. Two control groups were included in the study, treatment with vehicle (DMSO/PBS) followed by LPS and treatment with ATRA alone. Animals were sacrificed 24 hours after the last LPS challenge by exsanguination under deep anesthesia.
The lungs were lavaged with phosphate buffered saline (2×5 ml) to wash out mucous layer. The lavage fluid (BAL) was centrifuged for 10 min at 500×g and the cell-free supernate was frozen and stored -20° C. until analyzed for secreted mucin by Alcian-blue/PAS dot blot assay to determine relative contribution of neutral and acidic mucins. Standard curves were generated using bovine intestinal mucins (Sigma) TYPE 1 (Alc. blue/acidic mucins) and TYPE II (PAS+/neutral mucin). Each sample was assayed in triplicate and data presented as […] total mucin. (FIG. 4b)
The effect of RARα selective antagonists Ia and Ib on mucous hypersecretion in the rat and mouse models of LPS-induced lung inflammation was evaluated according to the procedure of Example 4. Animals were treated with compound (10 mg/kg) or vehicle daily starting 72 hours prior to LPS challenge.

[3] = test system: mucin gene expression in human epithelial cells; assay: Mucin gene expression (MUC2 and MUC5AC) in human epithelial cells; format: cell-based
Protocol: (§2) Transactivation of mucin genes in normal primary human bronchial epithelial cells (NHBE) was performed as described by Gray et al. Am. J. Respir. Biol., 14:104-112 (1996). Primary human airway epithelial cells were cultured on porous Transwell membranes (Corning/Costar) in defined media in the absence of all-trans retinoic acid (ATRA) for 7 days. After seven days, fresh media±ATRA or selective retinoid, was added to the basal culture compartment to create an air-liquid interface (ALI). ATRA and/or selective retinoids were used at a concentration or 1×10^-7 M. The selective retinoids used were: Compound X (RARα selective agonist), RXR agonist (SRI 11217) and anti-AP1 retinoid (SRI 11302). After seven additional days of culture the media was harvested for analysis of secreted mucin gene product using specific ELISA as previously described (Gray et al). The cell layer was lysed using a guanidinium-based buffer (TRIZOL/Sigma) for RNA extraction and analysis. Amplification of MUC2 and MUC5AC RNA was performed by standard RT-PCR using appropriate selective primer and mimics pairs (Guzman et al., Am. J. Physiol. 271 (Lung Cell Mol Physiol.15): L1023-L1028 (1996) and PCR products were detected in ethedium bromide stained agarose gels.
(§3) Transactivation of mucin genes in NHBE was performed as described above. On days 7 through day 14 cells were cultured with 1×10^-6 M RARα antagonist, Compound Z, alone or in combination with 1×10^-7 M ATRA or RARα selective agonist, Compound X. The effects on mucin gene transactivation and expression were determined by RT-PCR and ELISA as described above. RARα selective antagonist, Compound Z, had no effect on MUC2 or MUC5AC gene expression.

[4] = test system: goblet cell hyperplasia in rats; assay: LPS-induced goblet cell hyperplasia, morphometric analysis; format: in vivo, rat; conditions: ATRA 2 mg/kg ip once daily
Protocol: as §1
After lavage the lungs were perfused with 10% neutral buffered formalin by intratracheal instillation at a constant rate (5 ml at 1 ml/min). The left lobe was excised and immersed in fixative for 24 hours prior to processing. Standard methods were used to prepare 5 μm paraffin sections. […]

[5] = test system: MUC2; assay: MUC2 gene transactivation in NHBE cells, RT-PCR; format: cell-based, human; conditions: for MUC2 gene induction: 1×10^-7 M, Example 1; for MUC2 gene expression, compound alone: Example 3, antagonist 1×10^-6 M or agonist 1×10^-7 M
Protocol: as §2
(§4) Transactivation of mucin genes in NHBE was performed as described above with the exception that media was supplemented with RAR alpha (RARα), beta (RARβ), or gamma (RARγ)-selective retinoids on days 7 through day 14. The RAR alpha (RARα), beta (RARβ), or gamma (RARγ)-selective retinoids were compounds X, Y and CD-437 respectively.
as §3

[6] = test system: primary human bronchial epithelium; assay: Mucin protein secretion from NHBE cells, ELISA; format: cell-based; conditions: for mucin secretion: 1×10^-7 M, FIG. 1(b)
Protocol: as §2
Corresponding mucin protein secretion data are shown in FIG. 1(b) as ELISA data representing results from separate samples run in triplicate. Data presented as mean±sem. The mucin protein secretion data were consistent with gene induction results.
as §3

[7] = test system: MUC5AC; assay: MUC5AC gene transactivation in NHBE cells, RT-PCR; format: cell-based, human; conditions: for MUC5AC gene induction: 1×10^-7 M, Example 1; for MUC5AC gene expression, compound alone: Example 3, antagonist 1×10^-6 M or agonist 1×10^-7 M
Protocol: as §2, §4, §3

[8] = test system: RAR subtypes (α, β, and γ); conditions: cited from earlier work
[9] = test system: LPS-induced mucous hypersecretion in mice; assay: Mucous hypersecretion in mouse model of LPS-induced lung inflammation; format: in vivo; conditions: 10 mg/kg daily starting 72 hours prior to LPS challenge
Protocol: as §1, with “Two control groups were included in the study, treatment with vehicle (DMSO/PBS) followed by LPS and treatment with ATRA alone. Animals were sacrificed 24 hours after the last LPS challenge by exsanguination under deep anesthesia.” left out
The lungs were lavaged with phosphate buffered saline (2×5 ml) to wash out mucous layer. The lavage fluid (BAL) was centrifuged for 10 min at 500×g and the cell-free supernate was frozen and stored -20° C. until analyzed for secreted mucin by Alcian-blue/PAS dot blot assay to determine relative contribution of neutral and acidic mucins. […]
The effect of RARα selective antagonists Ia and Ib on mucous hypersecretion in the rat and mouse models of LPS-induced lung inflammation was evaluated according to the procedure of Example 4. […]

[10] = test system: NIH-292 cells; assay: LPS-induced mucin gene expression in NIH-292 cells, real time RT-PCR; format: cell-based, human; conditions: added 24 hours prior to 10 μg/ml LPS
Protocol: (§5) An in vitro assay was established to screen retinoid-based compounds for their effects on LPS-induced mucin gene expression using a continuous human lung epithelial cell line, NIH-292. NIH-292 cells were cultured in standard T-75 tissue culture flasks in DMEM/F12 media containing 10% fetal bovine serum (FBS). Upon confluence the media was changed to defined medium Optimem (Sigma) supplemented with 1% FBS 24 hours prior to challenge with 10 μg/ml LPS (P. aeriginos, Sigma Chemical). RAR selective antagonist, Compound Z, was added 24 hours prior to LPS challenge. ATRA and specific retinoids were prepared as DMSO stocks. Cells were harvested 6 or 24 hours after LPS challenge using a guanidinium-basedbuffer (TRIZOL/Sigma) for RNA extraction and analysis. Amplification of β-actin, MUC1, MUC2 and MUC5AC specific RNA was performed by using an automated fluorescent detection method for quantitation of real time RT-PCR (TAQMAN, Applied Biosystems/Perkin Elmer). Standard curves were generated for each of the relevant mucin RNAs using control plasmid. Analysis was performed in triplicate from duplicate samples.

[11] = test system: MUC5AC; assay: LPS-stimulated MUC5AC mRNA transcription, dose response; format: cell-based; conditions: Homo sapiens, normalized to glyceraldehyde phosphate 3-dehydrogenase, read-out: inhibition of MUC5AC gene transcription IC50
Protocol: as §5
Cells were stimulated with LPS in the presence or absence of Ia. MUC5AC specific mRNA was measured and is graphed normalized relative to glyceraldehyde phosphate 3-dehydrogenase control.

[12] = test system: MUC2; conditions: G. An, et al.; cited from earlier work
[13] = 1×10^-6 M antagonist with 1×10^-7 M ATRA or Compound X
[14] = even at the highest dose, 1×10^-6 M, Example 2

SMILES: CC1=C(/C=C/C(C)=C\C=C\C(C)=C\C(=O)O)C(C)(C)CCC1 [9-cis isomer of retinoic acid]
- binding to RXR receptors [1]: bind instead to the 9-cis isomer of retinoic acid

SMILES: CC1=C(/C=C/C(C)=C/C=C/C(C)=C/C(=O)O)C(C)(C)CCC1 [ATRA, All-trans retinoic acid]
- LPS-induced mucin hypersecretion in rats ([2]; ATRA 2 mg/kg ip once daily): enhancement
- mucin gene expression, specifically MUC2 and MUC5AC ([3]; retinoid agonists): transactivates mucin gene expression
- LPS-induced goblet cell hyperplasia [4]: enhancement
- binding to RXR receptors [1]: do not bind to all-trans retinoic acid
- MUC2 gene induction [5]: induce both MUC2 and MUC5AC gene induction
- MUC2 gene expression, compound alone [5]: potent inducers
- mucin secretion [6]: increase in mucin secretion
- MUC5AC gene induction [7]: induce both MUC2 and MUC5AC gene induction
- MUC5AC gene expression, compound alone [7]: potent inducers
- binding to the three RAR subtypes [8]: binds with approximately equal affinity to all the three RAR subtypes

SMILES: CCCCCCCOc1cc2c(cc1/C(C)=C/c1ccc(C(=O)O)cc1)C(C)(C)CCS2(=O)=O [Compound Ia]
- mucous hypersecretion in mice [9]: reduced the amount of mucous hypersecretion relative to vehicle
- LPS induced mucin gene expression [10]: inhibit LPS induced mucin gene expression
- mucous hypersecretion in rats [2]: reduced the amount of mucous hypersecretion relative to vehicle
- IC50 [11]: < 10 nM
- inhibition of retinoid induced mucin gene expression [3]: inhibited
- inhibition of ATRA- or Compound X-induced MUC2 [5, 13]: completely inhibited
- MUC2 gene expression, compound alone [5]: no effect
- inhibition of ATRA- or Compound X-induced mucin protein secretion ([6]; 1×10^-6 M antagonist with 1×10^-7 M ATRA or Compound X, FIG. 3b): completely inhibited
- inhibition of ATRA- or Compound X-induced MUC5AC [7, 13]: completely inhibited
- MUC5AC gene expression, compound alone [7]: no effect

SMILES: CCCCCCCOc1cc2c(cc1/C(C)=C/C=C/C(C)=C/C(=O)O)C(C)(C)CCS2(=O)=O [Compound Ib]
- mucous hypersecretion in mice [9]: reduced the amount of mucous hypersecretion relative to vehicle
- mucous hypersecretion in rats [2]: reduced the amount of mucous hypersecretion relative to vehicle
- inhibition of retinoid induced mucin gene expression [3]: inhibited

SMILES: CC1(C)CCC(C)(C)c2cc(C(=O)Nc3ccc(C(=O)O)cc3)ccc21 [Compound X]
- MUC2 gene induction [5]: induce both MUC2 and MUC5AC gene induction
- MUC2 gene activation ([5]; 1×10^-9 M, Example 2): most potent inducer
- MUC2 gene expression, compound alone [5]: potent inducers
- Induction of MUC2 [5, 14]: minimal
- mucin secretion [6]: increase in mucin secretion
- MUC5AC gene induction [7]: induce both MUC2 and MUC5AC gene induction
- MUC5AC gene activation ([7]; 1×10^-9 M, Example 2): most potent inducer
- MUC5AC gene expression, compound alone [7]: potent inducers
- Induction of MUC5AC [7, 14]: minimal

SMILES: CC(C)=C(c1ccc(C(=O)O)cc1)c1ccc2c(c1)C(C)(C)CCC2(C)C [SRI 11217, 4-[1-(5,6,7,8-tetrahydro-5,5,8,8,-tetramethyl-2-naphthalenyl)-2-methylpropenyl]-benzoic acid]
- MUC2 gene induction [5]: no effect on induction of either gene
- MUC5AC gene induction [7]: no effect on induction of either gene

SMILES: CC1=C(/C=C/C(C)=C/C=C/C(C)=C/CO)C(C)(C)CCC1 [retinol]
- expression of the MUC2 gene [12]: down-regulated
